Experiment: in vitro
Details: male; for Measured concentration of analyte PEA, 0 min / Measured concentration of analyte PEA, 10 min / Measured concentration of analyte PEA, 20 min / Measured concentration of analyte PEA, 30 min / Measured concentration of analyte PEA, 60 min / % Remaining of Initial, 0 min / % Remaining of Initial, 10 min / % Remaining of Initial, 20 min / % Remaining of Initial, 30 min / % Remaining of Initial, 60 min: 1 μM; for % Remaining of Initial, 0 min / % Remaining of Initial, 10 min / % Remaining of Initial, 20 min / % Remaining of Initial, 30 min / % Remaining of Initial, 60 min / microsomal CLint at 1 μM / half-life at 1 μM: microsomes; for % Remaining of Initial, 0 min: 0 h; for % Remaining of Initial, 30 min: 0.5 h; for % Remaining of Initial, 60 min: 1 h
Description: (§1) Reaction mixture, minus cofactors, was prepared as described below. Test article was added into the reaction mixture at a final concentration of 1 μM. […] An aliquot of the reaction mixture (without cofactor) was equilibrated in a shaking water bath at 37° C. for 3 minutes. The reaction was initiated by the addition of cofactor, and the mixture was incubated in a shaking water bath at 37° C. Aliquots (100 μL) were withdrawn at 0, 10, 20, 30, and 60 minutes. Test article samples were immediately combined with 300 μL of ice-cold acetonitrile containing 1% formic acid. Control samples were immediately combined with 400 μL of ice-cold 50/50 acetonitrile (ACN)/dH2O containing 0.1% formic acid and internal standard to terminate the reaction. Samples were then mixed and centrifuged to precipitate proteins. Calibration standards were prepared in matched matrix. Samples and standards were assayed by LC-MS/MS using electrospray ionization for both dosed prodrug and expected drug (PEA). Analytical conditions are outlined in Appendix 8-1. Test article concentration at each time point was compared to test article concentration at time 0 to determine the percent remaining at each time point. Half-lives were calculated using GraphPad software, fitting to a single-phase exponential decay equation.
Reaction mixture, minus cofactors, was prepared as described below. Test article was added into the reaction mixture at a final concentration of 1 μM. […] An aliquot of the reaction mixture (without cofactor) was equilibrated in a shaking water bath at 37° C. for 5 minutes. Reaction was initiated by the addition of cofactor, and the mixture was incubated in a shaking water bath at 37° C. Aliquots (100 μL) were withdrawn at 0, 10, 20, 30, and 60 minutes. Test article samples were immediately combined with 300 μL of ice-cold acetonitrile containing 1% formic acid. Control samples were immediately combined with 400 μL of ice-cold 50/50 acetonitrile (ACN)/dH2O containing 0.1% formic acid and internal standard to terminate the reaction. Samples were then mixed and centrifuged to precipitate proteins. Calibration standards were prepared in matched matrix. Samples and standards were assayed by LC-MS/MS using electrospray ionization for both the dosed prodrug and the expected drug (PEA). Analytical conditions are outlined in Appendix 10-1. Test article concentration at each time point was compared to the test article concentration at time 0 to determine the percent remaining at each time point. Half-lives were calculated using GraphPad software, fitting to a single-phase exponential decay equation.
as §1, with “minutes. Reaction” for “minutes. The reaction”, “300 μL,” for “300 μL”, “Appendix 13-1.” for “Appendix 8-1.”
Reaction mixture, minus cofactors, was prepared as described below.

[1] = CD-1, mouse, calculated value in parentheses
[2] = CD-1, mouse, Calculated half-life (in parentheses)

Measured concentration of analyte PEA, 0 min (Beagle, dog)	Measured concentration of analyte PEA, 10 min (Beagle, dog)	Measured concentration of analyte PEA, 20 min (Beagle, dog)	Measured concentration of analyte PEA, 30 min (Beagle, dog)	Measured concentration of analyte PEA, 60 min (Beagle, dog)	% Remaining of Initial, 0 min (Beagle, dog)	% Remaining of Initial, 10 min (Beagle, dog)	% Remaining of Initial, 20 min (Beagle, dog)	% Remaining of Initial, 30 min (Beagle, dog)	% Remaining of Initial, 60 min (Beagle, dog)	microsomal CLint at 1 μM (Beagle, dog)	half-life at 1 μM (Beagle, dog, Half-life)	Measured concentration of analyte PEA, 0 min (CD-1, mouse)	Measured concentration of analyte PEA, 10 min (CD-1, mouse)	Measured concentration of analyte PEA, 20 min (CD-1, mouse)	Measured concentration of analyte PEA, 30 min (CD-1, mouse)	Measured concentration of analyte PEA, 60 min (CD-1, mouse)	% Remaining of Initial, 0 min (CD-1, mouse)	% Remaining of Initial, 10 min (CD-1, mouse)	% Remaining of Initial, 20 min (CD-1, mouse)	also measured	Compound
0.23 µM	0.48 µM	0.38 µM	0.29 µM	0.17 µM	100%	5.4%	<1.0%	<1.0%	<1.0%	581 µL/min/mg	0.04 h	0.48 µM	0.34 µM	0.19 µM	0.12 µM	0.023 µM	100%	<1.0%	<1.0%	% Remaining of Initial, 30 min (CD-1, mouse): <1.0%; % Remaining of Initial, 60 min (CD-1, mouse): <1.0%; microsomal CLint at 1 μM (CD-1, mouse): > 1380 µL/min/mg; half-life at 1 μM (CD-1, mouse, Half-life): < 0.0167 h	CCCCCCCCCCCCCCCC(=O)NCCOC(=O)CCC [Compound I-2]
0.00074 µM	0.023 µM	0.037 µM	0.042 µM	0.053 µM	100%	94%	85%	85%	74%	< 23.1 µL/min/mg	> 1 h	0.0079 µM	0.025 µM	0.025 µM	0.042 µM	0.025 µM	100%	82%	83%	% Remaining of Initial, 30 min (CD-1, mouse): 60%; % Remaining of Initial, 60 min (CD-1, mouse): 70%; microsomal CLint at 1 μM (CD-1, mouse): < 23.1 µL/min/mg; microsomal CLint at 1 μM [1]: 13.8 µL/min/mg; half-life at 1 μM [2]: 1.67 h; half-life at 1 μM (CD-1, mouse, Half-life): > 1 h	CCCCCCCCCCCCCCCC(=O)NCCOC(=O)CCC(=O)OCC(COC(=O)CCCCCCC)OC(=O)CCCCCCC (stereo not drawn) [Compound I-3, PEA-Succinate-Glycerol-Di-Caprylic]
0.025 µM	0.081 µM	0.090 µM	0.087 µM	0.063 µM	100%	84%	75%	75%	67%	< 23.1 µL/min/mg	> 1 h	0.048 µM	0.080 µM	0.052 µM	0.048 µM	0.024 µM	100%	72%	57%	microsomal CLint at 1 μM (Beagle, dog, calculated value in parentheses): 13.3 µL/min/mg; half-life at 1 μM (Beagle, dog, Calculated half-life (in parentheses)): 1.73 h; % Remaining of Initial, 30 min (CD-1, mouse): 56%; % Remaining of Initial, 60 min (CD-1, mouse): 55%; microsomal CLint at 1 μM (CD-1, mouse): 23.6 µL/min/mg; half-life at 1 μM (CD-1, mouse, Half-life): 0.983 h	CC/C=C\C/C=C\C/C=C\C/C=C\C/C=C\CCCC(=O)OCCNC(=O)CCCCCCCCCCCCCCC [Compound I-5]
0.030 µM	0.087 µM	0.091 µM	0.080 µM	0.084 µM	100%	103%	100%	91%	77%	< 23.1 µL/min/mg	> 1 h	0.022 µM	0.055 µM	0.039 µM	0.041 µM	0.027 µM	100%	84%	74%	% Remaining of Initial, 30 min (CD-1, mouse): 73%; % Remaining of Initial, 60 min (CD-1, mouse): 61%; microsomal CLint at 1 μM (CD-1, mouse): < 23.1 µL/min/mg; microsomal CLint at 1 μM [1]: 16.4 µL/min/mg; half-life at 1 μM [2]: 1.4 h; half-life at 1 μM (CD-1, mouse, Half-life): > 1 h	CCCCC/C=C\C/C=C\CCCCCCCC(=O)OCCNC(=O)CCCCCCCCCCCCCCC [Compound I-6]

Source: patent US11547681B2, “N-acylethanolamide derivatives and uses thereof” (ELIEM THERAPEUTICS, INC., priority 2016, dated 2023)
